# Tests used:
# [1] = test system: Balb/c 3T3 mouse fibroblasts; assay: 3T3 in vitro phototoxicity assay (Neutral Red uptake); assay type: cell-based; settings: for Phototoxicity factor: Factor=IC50(-UV)/IC50(+UV), cut-off >5; for IC50: Mus musculus, BALB/c3T3, light or radiation study, with approx. 5 J/cm2 UVA light, Neutral Red uptake
# Description: 3T3 In Vitro Phototoxicity Assay
# Phototoxicity is defined as a toxic response that is elicited after the first exposure of the skin to certain chemicals and subsequent exposure to light, or that is induced similarly by skin irradiation after systemic administration of a chemical substance. The assay used in this study is designed to detect the phototoxic potential of a chemical by using a simple in vitro cytotoxicity assay with Balb/c 3T3 mouse fibroblasts. The principle of this test is a comparison of the cytotoxicity of a chemical when tested with and without exposure to a non-toxic dose of UVA-light. Cytotoxicity is expressed as a dose dependent reduction of the growth rate of cells as determined by uptake of the vital dye Neutral Red one day after treatment.
# A small amount of substance was weighed and formulated freshly in DMSO just before the start of the exposure of the cells. This stock solution or appropriate dilutions with DMSO were added to the cell suspensions to obtain the required final concentrations. All solutions were generally prepared in Eppendorf caps and discarded after use.
# Chlorpromazine (HCL) (Sigma, Batch/Lot No.: 120M1328V), test concentration: 300 μg/mL, Solvent: PBS/3% DMSO
# For this study the Neutral Red uptake (NRU) assay of Borenfreund and Puemer (Borenfreund, E, Puemer J A. Toxicity determined in vitro by morphological alterations and Neutral Red absorption. Toxicology Lett. 1985; 24:119-124) modified according to INVITTOX protocol No 78 (ERGATT/FRAME data bank of in vitro techniques in toxicology. INVITTOX PROTOCOL No 78. 3T3 NRU Phototoxicity Assay. March 1994) has been adapted to examine a possible phototoxic potential of the test item. This assay is based on the active uptake of the Neutral Red dye into the lysosomes of cultured murine fibroblasts. Because lysosomal membranes are known to be a site of action of many phototoxic compounds, this assay can provide a measure of potential for phototoxic injury.
# A murine fibroblasts clone A 31 (ATCC no. CCL 163—passage No. 108) were cultured in 175 cm^2 tissue culture grade flasks, containing sDMEM (Dulbecco's […] Essential Medium, supplemented with 10% fetal calf serum, 2 mM L-glutamine, 100 units/ml Penicillin and 100 μg/ml streptomycin) at 37° C. in a humidified atmosphere of 6% CO2. Before cells approach confluence they were removed from flasks by trypsinisation. Prior to use in an assay, the cells were transferred to 96-well microtiter plates at a concentration of 1×10^4 cells/well in 100 μl volumes of sDMEM and allowed to attach for 24 h.
# For incubation with murine fibroblasts, the test item was diluted in PBS/3% DMSO (detailed concentrations see in results).
# Culture medium (Dulbecco's Modified Eagle Medium (DMEM), GlutaMAX (Gibco Ref 21885-025), 10% Fetal Bovine Serum (FBS) (Gibco Ref 10270-106), 100 IU/ml Penicillin and 100 μg/ml Streptomycin (Gibco Ref 15140-122)) was removed from the wells and murine fibroblasts were washed with PBS. Afterwards 100 μL of PBS/3% DMSO containing the test item was added and target cells were incubated for 1 h at 37° C. with 6% CO2.
# For each test item the microtiter plates were prepared according to Table 4. “UVA plates” were exposed to approx. 5 J/cm^2 UVA light, the “Dark plates” were kept in the dark and served as cytotoxicity control. Plates with chlorpromazine hydrochloride served as positive control. UV flux was measured with a UV-meter (Dr. Gröbel RM21).
# Following UV irradiation, the test item was removed from the wells (one washing step with PBS) and replaced with sDMEM. Target cells were then incubated overnight at 37° C. in 6% CO2.
# Each plate contained wells with cells and solvent but without test item which were either not incubated with Neutral Red solution (0% standard—S1) or were stained with Neutral Red (100% standard—S2) for calculation of the standard cell viability curve. Wells labeled with U01-U08 contained the different test item concentrations. […]
# [2] = test system: TLR7 agonist-induced lupus-like disease; assay: R848 agonist induced mouse lupus nephritis disease model; assay type: in vivo, BALB/c mice; settings: 10 mg/kg orally once daily
# Description: Agonist Induced Mouse Lupus Nephritis Disease Model To assess compound efficacy in vivo against lupus nephritis, we utilized a murine model of TLR7 agonist-induced lupus-like disease, in which TLR7 activation leads to the development of systemic autoimmune symptoms with elevated levels of autoantibodies to double-stranded DNA (anti-dsDNA), inflammatory cytokines such as IP10, as well as multiple organs involvement especially in kidney and spleen. BALB/c mice were purchased from Vital River Laboratories Co., Ltd., Beijing, China. All mice were 7 to 8-week old female. To induce disease, animals were topically treated on the right ear with 100 μg of Resiquimod (R848) solved in 20 μL of acetone for three times per week. Compound or vehicle treatment was administrated orally once daily and 30 minutes prior to the epicutanenous R848 treatment if they were on the same day. Blood samples were collected once weekly to gauge the level of autoantibody against double stranded DNA and multiple cytokines in serum. The total anti-dsDNA Immunoglobulins in serum were measured according to the manufacturer's instruction with a commercially available ELISA assay (Cat #5110, Alpha Diagnostic Inti Inc.). Cytokine levels in serum were measured with a ProcartaPlex immunoassay Kit (Cat #[…], Thermo Fisher). Specifically, 10 μL of premixed magnetic capture beads were added to a DropArray DA-bead plate (Cat #969-CC-BD-05, Curiox). After washing, 10 μL of diluted sera (1:5) was incubated on the DA-bead plate overnight at 4° c. After washing for three times, 5 μL of premixed detection antibody was added to the plate with an incubation for 60 minutes at room temperature. After washing, 10 μL of Streptavidin-PE was added with an incubation for 30 minutes at room temperature. The beads were then re-suspended in 55 μL Reading Buffer. Samples were analyzed with a Luminex 200 (Millipore). Urine samples were collected once weekly with the animals housed in metabolic cages for 24 hours, and were subjected to the measurements of urinary albumin (UALB), urinary creatinine (UCR) and urinary total protein (UTP) with a Roche Cobas 6000 Chemistry Analyzer (Roche Diagnostics, Mannheim, Germany). Tubular protein scores of 0 to 3 were based on the percentage of tubules containing proteinaceous fluid. Grade 1: <25% of tubules affected; Grade 2: 25 to 50% of tubules affected; Grade 3: >50% of tubules affected. Spleens were harvested and weighed upon study termination to evaluate splenomegaly.
Structure (SMILES),Phototoxicity factor [1],IC50 [1] [µg/mL],production of Interferon gamma-induced protein 10 (IP-10) in serum ([2]; after 1 week of treatment (FIG. 3A)),level of anti-dsDNA autoantibodies in serum ([2]; after 2 weeks of treatment (FIG. 3B)),kidney damage / R848-induced proteinuria (UACR) ([2]; after 5 weeks of treatment (FIG. 3C)),splenomegaly / spleen weight ([2]; after 6 weeks of treatment (FIG. 3D))
"C[C@@H]1CN(c2ccc(C#N)c3ncccc23)C[C@@H]2CN(Cc3ccc4c(c3)CNCC4)CCN21 [Example 5, 5-[(4R,9aS)-4-methyl-8-(1,2,3,4-tetrahydroisoquinolin-7-ylmethyl)-3,4,6,7,9,9a-hexahydro-1H-pyrazino[1,2-a]pyrazin-2-yl]quinoline-8-carbonitrile]",>1.39,23.3,–,–,–,–
"C[C@@H]1CN(c2ccc(C#N)c3ncccc23)C[C@@H]2CN(c3cccc4c3CNC4)CCN21 [Example 9, 5-[(4R,9aS)-8-isoindolin-4-yl-4-methyl-3,4,6,7,9,9a-hexahydro-1H-pyrazino[1,2-a]pyrazin-2-yl]quinoline-8-carbonitrile]",>3.9,26.3,–,–,–,–
"CO[C@@H]1CN(c2ccc(CCN3CCN4[C@@H](C3)CN(c3ccc(C#N)c5ncccc35)C[C@H]4C)cn2)C[C@H]1N [Example 12, 5-[(4R,9aS)-8-[2-[6-[(3R,4R)-3-amino-4-methoxy-pyrrolidin-1-yl]-3-pyridyl]ethyl]-4-methyl-3,4,6,7,9,9a-hexahydro-1H-pyrazino[1,2-a]pyrazin-2-yl]quinoline-8-carbonitrile]",>2.53,–,–,–,–,–
"CO[C@@H]1CN(c2ccc(CCN3CCN4[C@@H](C3)CN(c3ccc(C#N)n5nccc35)C[C@H]4C)cc2)C[C@H]1N [Example 68, 4-[(4R,9aS)-8-[2-[4-[(3R,4R)-3-amino-4-methoxy-pyrrolidin-1-yl]phenyl]ethyl]-4-methyl-3,4,6,7,9,9a-hexahydro-1H-pyrazino[1,2-a]pyrazin-2-yl]pyrazolo[1,5-a]pyridine-7-carbonitrile]",1.53,65.9,–,–,–,–
"[2H]c1ccc2c(N3C[C@@H]4CN(CCc5ccc(N6C[C@H]7NCCO[C@@H]7C6)nc5)CCN4[C@H](C)C3)ccc(C#N)c2n1 [Example 77, 5-[(4R,9aS)-8-[2-[6-[(4aR,7aR)-3,4,4a,5,7,7a-hexahydro-2H-pyrrolo[3,4-b][1,4]oxazin-6-yl]-3-pyridyl]ethyl]-4-methyl-3,4,6,7,9,9a-hexahydro-1H-pyrazino[1,2-a]pyrazin-2-yl]-2-deuterio-quinoline-8-carbonitrile]",>1.9,52.5,–,–,–,–
"[2H]c1ccc2c(N3C[C@@H]4CN(c5ccc([C@@H]6CNCCO6)cc5)CCN4[C@@H](C)C3)ccc(C#N)c2n1 [Example 106, 5-[(4S,9aS)-4-methyl-8-[4-[(2R)-morpholin-2-yl]phenyl]-3,4,6,7,9,9a-hexahydro-1H-pyrazino[1,2-a]pyrazin-2-yl]-2-deuterio-quinoline-8-carbonitrile]",>1.67,60.2,inhibited,significantly reduces,no R848-induced proteinuria increase,prevented splenomegaly

# Reference: US20220340597A1, “HEXAHYDRO-1H-PYRAZINO[1,2-A]PYRAZINE COMPOUNDS FOR THE TREATMENT OF AUTOIMMUNE DISEASE” (Hoffmann-La Roche Inc., priority 2019, published 2022)
